In patent US20040241243A1, “Angiogenesis promotion by prostaglandin compositions and methods” (NexMed (Holdings) Inc., priority 2003, published 2004):

Legend:
[1] = tested on: endothelial cells; conditions: in vitro; cited from earlier work
[2] = biological target: EP2 receptor (Mus musculus, UniProt Q62053); conditions: read-out: affinity for the EP2 receptor; cited from earlier work
[3] = tested on: VEGF; conditions: systemic treatment of patients; cited from earlier work
[4] = three months intracavernous injections three times a week; patients completing treatment; cited from earlier work
[5] = three months intracavernous injections three times a week; cited from earlier work
[6] = tested on: segments of rat iliac arteries; assay: microvascular outgrowth from rat iliac artery ringlets cultured in Matrigel; assay type: cell-based, Sprague-Dawley rats
Procedure: Each sample was placed on a reduced-growth factor Matrigel coated coverglass slide in a culture dish filled with serum-free medium. […] The cultures were incubated at 37° C. in a humidified atmosphere with 5% CO2. Digital photographs were taken of growth after 96 hours.
Growth Factor Reduced Matrigel (Passaniti, A., et al., Lab. Invest. 1992 67:518-528) was purchased from Becton Dickinson (Mountain View, Calif.). Cell culture grade PGE1 was purchased from Sigma Chemical. (St. Louis, Mo.). RPIM-1640 and other cell culture reagents were purchased from GIBCO Invitrogen Corp. (Grand Island, N.Y.).
Male Sprague-Dawley rats, two-months old, were used in this study. All animal care, treatments, and procedures were approved by the institutional Committee on Animal Research. The rats were sacrificed by intraperitoneal injection of sodium pentobarbital (50 mg/kg) followed by bilateral thoracotomy and the removal of segments of iliac arteries.
The iliac artery segments isolated from Sprague-Dawley rats were sectioned into ringlets and cultured attached to Matrigel-coated glass coverslips. The coverslips were used as the supporting platform to facilitate samples processing for histological staining and examination. Coverslips were coated as follows. Growth Factor Reduced Matrigel (Becton Dickinson, Mountain View, Calif.) was diluted 3-fold in serum-free RPMI-1640 in a 35-mm culture dish on ice. The diluted Matrigel was then spread onto cold sterilized glass coverslips using a sterilized glass slide as spreader. The coated coverslips were placed in 35-mm culture dishes and incubated at 37° C. for 1 hr to allow the Matrigel to solidify. Iliac artery ringlets were placed on top of Matrigel coated coverslips and covered by 50 μl cold Growth Factor Reduced Matrigel which had been kept in liquid form. After a 5-min incubation at 37° C. to allow the Matrigel to polymerize, 3 ml of serum-free RPMI 1640 medium supplemented with 1×penicillin-streptomycin-fangizone (Cell Culture Facility, University of California, San Francisco) was added. […] The iliac artery ringlet cultures were maintained at 37 ° C. in a humidified atmosphere with 5% CO2.
After 96 hours of incubation, the iliac artery ringlet cultures were examined. Microvascular growths were photographed using a professional DCS-420 digital camera (Eastman Kodak, Rochester, N.Y.) connected to an Olympus microscope and an Apple Macintosh PowerMac computer. All samples were photographed and the images were stored for later analysis. The digital images were analyzed using ChemiImager 4000 software (Alpha Innotech Corporation, San Leandro, Calif.) to determine the maximum length of the microvascular growths.
Statistical analysis was performed using computer software from Primer of Biostatistics, 3rd ed. (Glantz SA, McGraw-Hill, Inc. New York, 1992). The data involving different time points were first analyzed by one-way analysis of variance (ANOVA). If ANOVA indicated a significant difference, the Student-Neuman-Keuls test was used to perform pair-wise comparisons.

EP2 receptor, sequence (Q62053 whole entry): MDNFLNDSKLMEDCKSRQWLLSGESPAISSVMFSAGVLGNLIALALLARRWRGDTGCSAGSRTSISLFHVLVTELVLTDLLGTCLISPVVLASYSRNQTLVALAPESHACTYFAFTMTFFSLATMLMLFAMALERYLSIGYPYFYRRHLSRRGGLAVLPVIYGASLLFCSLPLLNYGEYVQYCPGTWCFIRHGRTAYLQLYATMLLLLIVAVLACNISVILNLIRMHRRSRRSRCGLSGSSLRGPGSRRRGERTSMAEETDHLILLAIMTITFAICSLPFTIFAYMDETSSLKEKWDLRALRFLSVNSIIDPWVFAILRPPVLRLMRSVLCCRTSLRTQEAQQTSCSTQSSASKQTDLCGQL

Row | Compound | effect on VEGF [1] | Kd [2] | effect on VEGF expression [3] | patients reporting recovery of spontaneous erections sufficient for intercourse [4] | recovery of spontaneous erections [5] | responsiveness to oral sildenafil therapy [5] | peak microvascular growth ([6]; 1 μM PGE1) | Length of longest microvascular growth ([6]; 1 μM PGE1, 96 hours) | Length of longest microvascular growth ([6]; 10 μM PGE1, 96 hours) | Length of longest microvascular growth ([6]; 20 μM PGE1, 96 hours) | Length of longest microvascular growth ([6]; 30 μM PGE1, 96 hours) | Length of longest microvascular growth ([6]; 60 μM PGE1, 96 hours) | effect on microvascular outgrowth ([6]; primary cultures of rat iliac artery segments)
1 | CCCCC[C@H](O)/C=C/[C@H]1[C@H](O)CC(=O)[C@@H]1C/C=C\CCCC(=O)O [PGE2, prostaglandin E2] | up-regulate VEGF | ~10 nM | – | – | – | – | – | – | – | – | – | – | –
2 | Prostaglandin E1 [PGE1] | – | – | up-regulate expression of VEGF | 8 of the 12 | more likely to recover spontaneous erections | more likely to be responsive to oral sildenafil therapy | 680 micrometers | 680 μm | 360 μm | 100 μm | 30 μm | 5 μm | enhance microvascular outgrowth
